According to ChEMBL document CHEMBL1201862, “PubChem BioAssay data set” (2004):
Activity calls are given as the source filed them. How the calls were made is not given here.

Columns and labels:
[1] = target: T1, High affinity choline transporter 1 (Homo sapiens, UniProt Q9GZV3); assay: human choline transporter blockers, potency – cell-based, 10-point CRC, membrane potential dye, dose response (AID 588401); assay type: functional;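 further: membrane potential dye fluorescence of choline-evoked depolarization via CHT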
T1 sequence (Q9GZV3 whole entry): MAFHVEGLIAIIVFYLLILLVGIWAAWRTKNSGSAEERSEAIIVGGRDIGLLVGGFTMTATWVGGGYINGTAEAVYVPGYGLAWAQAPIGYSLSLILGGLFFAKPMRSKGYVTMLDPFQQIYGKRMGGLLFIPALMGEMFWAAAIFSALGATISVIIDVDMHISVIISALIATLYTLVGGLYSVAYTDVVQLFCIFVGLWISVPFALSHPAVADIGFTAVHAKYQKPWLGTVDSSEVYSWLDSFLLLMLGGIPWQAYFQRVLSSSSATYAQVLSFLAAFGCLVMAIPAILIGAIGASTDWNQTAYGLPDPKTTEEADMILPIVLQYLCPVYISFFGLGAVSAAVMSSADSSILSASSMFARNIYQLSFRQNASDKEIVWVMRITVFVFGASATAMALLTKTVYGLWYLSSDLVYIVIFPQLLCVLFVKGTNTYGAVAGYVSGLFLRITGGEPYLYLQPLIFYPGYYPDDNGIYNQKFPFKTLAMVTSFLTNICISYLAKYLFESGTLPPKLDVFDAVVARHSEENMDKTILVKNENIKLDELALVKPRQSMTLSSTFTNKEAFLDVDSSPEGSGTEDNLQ

[2] = target: T1, High affinity choline transporter 1; assay: human choline transporter blockers, potency – cell-based, 5-point CRC, membrane potential dye, dose response (AID 504840); assay type: functional

IC50 [1]: 2.7 µM (active)
IC50 [2]: 4.07 µM (active)
SMILES: Cc1cc(C)c(C(=O)Nc2ccc(S(=O)(=O)Nc3ccccn3)cc2)c(C)c1
